This note sets out measurements from patent publication US20260372305A1, “A METHOD FOR CONTROLLING WEEDS” (SYNGENTA CROP PROTECTION AG, priority 2022, published 2026).

A value given as a limit tells only on which side of the number the result lay.

What all share (format): in vivo
Assay [1] relates to Amaranthus palmeri, PPO inhibitor sensitive population ('Sensitive'). The experiment in a line: Postemergence control of PPO inhibitor sensitive Amaranthus palmeri (Example 1). The following applies: for use rate achieving complete control (no surviving plants) of the 'sensitive' population / % Survival out of 14 repetitions: postemergence, 14 days after application; for % Survival out of 14 repetitions: Sensitive, Adigor 0.5% by volume. The source says:
(§1) The commercial standard PPO inhibitor fomesafen and compound 1 of the present application were applied to two Amaranthus palmeri populations in order to determine the impact of mutations at amino acid 98 in PPX2L from the wild-type arginine to a glycine.
(§2) The two A. palmeri populations used were as follows: a known PPO inhibitor sensitive population (‘Sensitive’), a population of which each individual was known to be homozygous for a glycine at amino acid 98 in the protoporphyrinogen oxidase gene PPX2L (‘98GG’).
(§3) Seeds were sown in seed trays containing ericaceous compost and covered with vermiculite. When approximately 1 inch in height plants were transplanted 1 per pot into 3-inch diameter pots containing ericaceous compost. The pots were watered and maintained in a glasshouse providing a 16 H photoperiod of 180 μmol m^−2 s^−1 with 24 °C daytime temperatures and 18 °C night-time temperatures and 65% relative humidity until 3 inches tall at which point the herbicides were applied at the use rates specified in Table 1 below to 14 individual plants per rate of each of the biotypes.
(§4) All treatments were applied as dilutions in reverse osmosis water and with the commercial adjuvant Adigor® at 0.5% by volume. Prior to dilution with water compound 8 was initially dissolved to a 5% solution in a solvent mixture comprising 11.12% Emulsogen EL 360, 44.44% Dowanol DPM and 44.44% N-methyl pyrrolidone. Herbicide applications were carried out in a track sprayer with a flat fan nozzle applying the herbicide treatments at a rate of 200 L/ha^−1.
(§5) After treatment, the plants were watered and maintained in a glasshouse providing a 16 H photoperiod of 180 μmol m^−2 s^−1 with 24 °C daytime temperatures and 18 °C night-time temperatures and 65% relative humidity until 14 days after application at which point they were assessed on a ‘dead or alive’ basis. The plants still alive at this point were classed as surviving the herbicide application and the averaged results of this assessment are presented in Table 1.

Assay [2] relates to Amaranthus palmeri, homozygous for glycine at amino acid 98 in PPX2L ('98GG', R98G). The experiment in a line: Postemergence control of Amaranthus palmeri with R98G mutation in PPX2L (Example 1). The following applies: for % Survival out of 14 repetitions: R98G, postemergence, 14 days after application, Adigor 0.5% by volume.
Text: as §1, §2, §3, §4, §5

The test system of assay [3] is Amaranthus tuberculatus, Sensitive. The experiment in a line: Postemergence control of sensitive population (Example 2). The settings on record: Agridex 1% by volume.

`CS(=O)(=O)NC(=O)c1cc(Oc2ccc(C(F)(F)F)cc2Cl)ccc1[N+](=O)[O-]` [fomesafen, reference compound]: the “use rate achieving complete control (no surviving plants) of the 'sensitive' population” value in assay [1] ('sensitive' population) is on record as ≥ 64 g ai/ha^−1. In addition, the “% Survival out of 14 repetitions” value in assay [1] (1 g ai/ha^−1) amounted to 100%; in assay [1] (2 g ai/ha^−1), 100%; in assay [1] (4 g ai/ha^−1), 86%; in assay [1] (8 g ai/ha^−1), 71%; in assay [1] (16 g ai/ha^−1) it was 14%; in assay [1] (32 g ai/ha^−1), 7%. For the same molecule, the “% Survival out of 14 repetitions” value in assay [1] (64 g ai/ha^−1) came out at 0%; in assay [1] (128 g ai/ha^−1) it was 0%; in assay [2] (1 g ai/ha^−1) it was 100%; in assay [2] (2 g ai/ha^−1), 100%; in assay [2] (4 g ai/ha^−1) it was 100%; in assay [2] (8 g ai/ha^−1), 100%. The “% Survival out of 14 repetitions” value is reported as 100% in assay [2] (16 g ai/ha^−1), 93% in assay [2] (32 g ai/ha^−1), 93% in assay [2] (64 g ai/ha^−1) and 93% in assay [2] (128 g ai/ha^−1).

Turning to `CCOC(=O)[C@]1(C)CC(c2cc(-n3c(=O)n(C)c(=S)n(C)c3=O)c(F)cc2Cl)=NO1` [compound 1, ethyl (5S)-3-[2-chloro-5-(3,5-dimethyl-2,6-dioxo-4-thioxo-1,3,5-triazinan-1-yl)-4-fluoro-phenyl]-5-methyl-4H-isoxazole-5-carboxylate], the “% Survival out of 14 repetitions” value was 100% in assay [3] (0.5 g ai/ha^−1, 14 days after application); 100% in assay [3] (1 g ai/ha^−1, 14 days after application); 86% in assay [3] (2 g ai/ha^−1, 14 days after application); 43% in assay [3] (4 g ai/ha^−1, 14 days after application); 14% in assay [3] (8 g ai/ha^−1, 14 days after application); 0% in assay [3] (16 g ai/ha^−1, 14 days after application). The “% Survival out of 14 repetitions” value in assay [3] (32 g ai/ha^−1, 14 days after application) was determined as 0%; in assay [3] (64 g ai/ha^−1, 14 days after application) it was 0%; in assay [1] (0.5 g ai/ha^−1), 100%; in assay [1] (1 g ai/ha^−1), 100%; in assay [1] (2 g ai/ha^−1), 86%; in assay [1] (4 g ai/ha^−1) it was 43%. Also, the “% Survival out of 14 repetitions” value in assay [1] (8 g ai/ha^−1) is listed as 7%; in assay [1] (16 g ai/ha^−1), 0%; in assay [1] (32 g ai/ha^−1), 0%; in assay [1] (64 g ai/ha^−1) it was 0%; in assay [2] (0.5 g ai/ha^−1) it was 100%; in assay [2] (1 g ai/ha^−1), 100%. Moreover, the “% Survival out of 14 repetitions” value was 100% in assay [2] (2 g ai/ha^−1); 100% in assay [2] (4 g ai/ha^−1); 100% in assay [2] (8 g ai/ha^−1); 79% in assay [2] (16 g ai/ha^−1); 79% in assay [2] (32 g ai/ha^−1); 21% in assay [2] (64 g ai/ha^−1). The “ability for controlling the 'sensitive' population compared with fomesafen” value in assay [1] ('sensitive' population, compared with fomesafen) is listed as “improved ability compared with fomesafen for controlling the ‘sensitive’ population”. Also, the “use rate achieving complete control (no surviving plants) of the 'sensitive' population” value in assay [1] ('sensitive' population) was ≥ 16 g ai/ha^−1. In assay [2] ('98GG', 16 g ai/ha^−1 rate, compared with fomesafen), the “control of '98GG'” value is “better control of ‘98GG’”.
